Test results: patent US20150018409A1, “CHIMERIC POLYPEPTIDES AND THEIR USE” (ADRIACELL S.P.A., priority 2003, published 2015)
pIC50: −log10 of the molar value.

Key:
U2OS cells [1] = test: FACS analysis of DNA content / cell cycle distribution; type: cell-based, human; details: for interaction with SCPVUTAT on the cell cycle: simultaneous incubation with SCPVUTAT
Experimental: The distribution of the various phases of the cell cycle of the protein transduced cells was analysed by FACS analysis. Distribution of the DNA content of the cell populations was detected. 2n represents a diploid DNA equivalent (non replicated; G1 phase), 4n represents the tetraploid DNA equivalent (replicated; G2/M phase). For the FACS analysis the cells were separated employing the DDM mode that allows to estimate DNA content of a single cell. U2OS cells were grown for 24 hours (upper row) or 48 hours (lower row) in the presence of increasing amounts of […] (10 nM, 50 nM, 100 nM) as indicated and with only one addition of proteins; non treated cells (control); cells treated with a nuclease impaired derivative of […] (SC34, 100 nM). All the histograms shown represent a measure of DNA content relative to the cell numbers as indicated only on the upper right panel.
U2OS cells were incubated with […] (10 nM, panel B), or with H2O2 (10 μM, panelC), or both ([…], 10 nM; H2O2, 10 μM; panel D), or with no agent as a control (panel A). Further treatment cells were analysed in FACS for DNA content; the percentage of the various cell cycle phases are indicated at the bottoms of the individual histograms.
Finally, to confirm that the DSB's that are produced in vivo also induce perturbations in the cell cycle, DNA content in the various phases of the cell cycle was analysed by Fluorescence Activated Cell Sorting (FACS) after transduction of the proteins of the invention. After the treatment with diverse proteins at various concentrations and during different timepoints, the cells were fixed in 70% ethanol, treated with RNAse A and stained with propidium […].
The FACS analysis was done using a FACSCalibur™ (Becton Dickinson) apparatus. The obtained data were evaluated with the CellQuest™ software program package. At least 3×10^4 single events for every sample were analysed in the DDM mode. The statistic analysis of the DNA content distribution during the cell cycle was done with the MODFIT LT™ software program package. A 2N diploid DNA content correspond to cells in the G1 phase of the cell cycle, 4N represents a relative tetraploid DNA content and corresponds to G2 and/or M phase of the cell cycle. An intermediate DNA content represents S phase corresponding to a population actively replicating DNA during the cell cycle and a content that is below diploid 2N represents cells in apoptosis.
U2OS cells were incubated with 10 nM […] and with 10 μM H2O2 alone or in combination ant the cell cycle profile was analysed by FACS.

[2] = tested on: MRC-5 cells (ATM positive); details: SCPVUTAT 100 nM or HU 1 mM
Experimental: [sequence] dependent Ser^15 phosphorylation of p53. The ATM positive cell-line MRC5 was treated with [sequence] (100 nM, SC) or with hydroxyurea (1 mM, HU) for the time periods as indicated; as a control non treated cells were used (O).
(§1) P53 phosphorylation on Ser15 in response to [sequence] treatment was assayed in ATM positive or negative cell lines (MRC-5 and AT-5 respectively). For comparison parallel experiments were done with hydroxyurea (HU). […] For this immunoblotting experiments were done with extracts after treatment, by using specific antibodies to a phosphorylated Ser15 in p53 for specific detection.

[3] = tested on: AT-5 cells (ATM negative); details: SCPVUTAT 100 nM or HU 1 mM
Experimental: AT-5 cells, negative for ATM were treated with [sequence]
as §1

HCT116 (p53(+/+)) cells = test: Cell cycle arrest point: nuclear morphology and immunofluorescence of cyclin B1 and Cdc25C; type: cell-based, human; details: 30 hours; SCPVUTAT 100 nM or Taxol 0.2 μg/ml
Experimental: Microscopic analysis of the HCT116 (p53(+/+)) cells not treated, or treated with […] (100 nM) for 30 hours, or with taxol (0.2 μg/ml). Immunofluorescence analysis was done with primary antibodies specific for cyclin B1 or specific for Cdc25C and coloured with secondary conjugates of FITC (green, cyclinB1) or TRITC (red, Cdc25C).
Moreover, the initiation of mitosis, i.e. induced with the microtuble blocking agents Nocodazol or Taxol, can be detected by the nuclear activity of the Cdc2 kinase and also by nuclear localisation of Cdc25C. These assays allow to dissect the exact point of cell cycle arrest after […] treatment and this further allows to detect disturbations in this phase of the cell cycle relative to a positive control. Similar experiments are well known in the art also for other phases of the cell cycle. The assay shown in FIG. 7A and the immunofluorescence analysis shown in FIG. 14 show examples for these types of experiments.
HCT116 (p53(+/+)) not treated, or treated for 30 hours with […] (100 nM), or with Taxol (0.2 μg/ml) were fixated with 3% PFA and treated with specific antibodies to cyclin B1 or for Cdc25C. The immunofluorescence was analysed with the microscope (see FIG. 14) with specific primary antibodies to cyclin B1 conjugated to FITC labelled secondary antibodies (green) or with specific primary antibodies to Cdc25C conjugated to TRITC labelled secondary antibodies (red).

U2OS cells [4] = test: Histone H2AX Ser139 phosphorylation, single cell fluorescence microscopy; type: cell-based, human; details: Wortmanin 50 μM with SCPVUTAT 100 nM, 60 minutes
Experimental: U2OS cells were treated with [sequence] (100 nM, central column) for 60 minutes, in addition treatment was done with Wortmanin (50 μM, WM, right column), or with no agent as a control (left column). After treatment cells were stained with specific antibodies to H2AX-Ser-139 phosphorylated (red) or for Histone 2B (served as a control, green) and analysed on a single cell level by fluorescence microscopy.
As another example for a phosphorylation of a substrate of ATM in response to the object of the invention, histone H2AX Ser^139 phosphorylation was analysed. […] U2OS cells were treated for 60 minutes with [sequence], fixed and analysed for histone H2AX Ser^139 phosphorylation. Cells were analysed with a specific antiserum to phospho-Ser 139 on histone H2AX and analysed in the microscope on a single cell basis. As a control histone 2B was analysed.

ATM, ATR and TOR = details: Sarkaria et al., 1999; target not stated with the value; cited from earlier work
[5] = tested on: U2OS osteosarcoma cells and IMR90 primary fibroblasts; test: Protein transduction of the chimeric proteins (immunoblot and immunofluorescence with PvuII antibody); type: cell-based, human
Experimental: For a comparison aliquots of the supernatants of the cell culture taken before extract preparation were included in the analysis (upper panel, SUPERNATANT).
In addition DNA costaining was obtained with propidium J after RNAse A digest (red, upper panel).
The transduction capacity of the chimeric proteins was assayed in U2OS osteosarcoma cells and in the IMR90 primary fibroblasts cells. The cells were grown in DMEM containing 10% FCS and treated with the proteins of the invention in the same medium, in general in the presence of antibiotics. After 10 minutes of incubation of the cells with increasing quantities of the fusion protein […] (1, 10, 50, 100, 200 nM) and with the protein SCPVU (single chain PvuII without TAT) and SC34 as a control (prepared as described for […] except that the enzyme PvuII contains a mutant in position 34) cell extracts were prepared, separated on SDS-PAGE and assayed by immuno-blot analysis with a monospecific antibody to PvuII. Further, uptake was assayed after 30 min of incubation by immuno-fluorescence analysis using PvuII specific antibodies and nuclear costaining with propidium iodide.

OO [H2O2]
change of G2 phase (U2OS cells [1]; 10 μM H2O2 alone): no increase in G2
interaction with SCPVUTAT on the cell cycle (U2OS cells [1]): synergistic effect

NC(=O)NO [HU, hydroxyurea, reference compound]
p53-Ser15 phosphorylation [2]: comparable however consistently higher
p53-Ser15 phosphorylation [3]: comparable however consistently higher

CC(=O)O[C@H]1C(=O)[C@@]2(C)[C@H]([C@H](OC(=O)c3ccccc3)[C@]3(O)C[C@H](OC(=O)[C@H](O)[C@@H](NC(=O)c4ccccc4)c4ccccc4)C(C)=C1C3(C)C)[C@]1(OC(C)=O)CO[C@@H]1C[C@@H]2O [Taxol, reference compound]
cell cycle stop from localisation of Cdc25C and cyclin B (HCT116 (p53(+/+)) cells): stop in M phase

COC[C@H]1OC(=O)c2coc3c2[C@@]1(C)C1=C(C3=O)[C@@H]2CCC(=O)[C@@]2(C)C[C@H]1OC(C)=O [Wortmanin, reference compound]
effect on SCPVUTAT induced histone H2AX Ser139 phosphorylation (U2OS cells [4]): antagonist for this reaction

C[C@@]1(CO)[C@H](O)CC[C@@]2(C)[C@H]1CC[C@H]1C[C@@H]3C[C@@]12CC[C@]3(O)CO [aphidicolin]
interaction with SCPVUTAT on the cell cycle (U2OS cells [1]): no synergistic effect was observed

Cn1c(=O)c2c(ncn2C)n(C)c1=O [caffeine]
pIC50 (ATM, ATR and TOR): > 3.00
effect of caffeine on the SCPVUTAT cell cycle stop (U2OS cells [1]; 100 nM SCPVUTAT in combination with 2 mM caffeine, 30 hours): antagonist to the effect of SCPVUTAT in vivo
cell cycle effect of caffeine alone (U2OS cells [1]; 2 mM caffeine): moderate delay in the G1 phase
influence of caffeine on the transduction capacity of SCPVUTAT [5]: nor does it influence the transduction capacity
